# Measured values from PubChem BioAssay (NCI).
#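 All cell lines were grown in 96-well plates and treated with compound for 48 hours. Here, GI50 denotes the concentration required for 50% inhibition of growth. TGI: concentration producing complete growth inhibition.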 Where a SMILES comes first, the peptide text is derived from it. [ ]: non-standard residue; d: D form. The star is where a group is joined. Phe(4-NO2) = N[CH](Cc1ccc([N+](=O)[O-])cc1)C(=O)O; Cbz = O=C(OCc1ccccc1)*
# Assays:
# Experiment in all cases: NCI anticancer screen, dose series, 48 h
# A498 renal = test system: A498 renal
# A549 NSCLC = test system: A549 NSCLC
# EKVX NSCLC = test system: EKVX NSCLC
# HL-60(TB) leukemia = test system: HL-60(TB) leukemia
# HOP-92 NSCLC = test system: HOP-92 NSCLC
# HT29 colon = test system: HT29 colon
# KM12 colon = test system: KM12 colon
# NCI-H226 lung = test system: NCI-H226 lung
# NCI-H460 lung = test system: NCI-H460 lung
# NCI/ADR-RES ovarian = test system: NCI/ADR-RES ovarian
# PC-3 prostate = test system: PC-3 prostate
# SF-268 CNS = test system: SF-268 CNS
# SK-MEL-2 melanoma = test system: SK-MEL-2 melanoma
# SK-MEL-28 melanoma = test system: SK-MEL-28 melanoma
# SK-MEL-5 melanoma = test system: SK-MEL-5 melanoma
# SNB-19 CNS = test system: SNB-19 CNS
# SR leukemia = test system: SR leukemia
# T-47D breast = test system: T-47D breast
# MALME-3M melanoma = test system: MALME-3M melanoma
SMILES,TGI (A498 renal),TGI (A549 NSCLC),TGI (EKVX NSCLC),TGI (HL-60(TB) leukemia),TGI (HOP-92 NSCLC),TGI (HT29 colon),TGI (KM12 colon),TGI (NCI-H226 lung),TGI (NCI-H460 lung),TGI (NCI/ADR-RES ovarian),TGI (PC-3 prostate),TGI (SF-268 CNS),TGI (SK-MEL-2 melanoma),TGI (SK-MEL-28 melanoma),TGI (SK-MEL-5 melanoma),TGI (SNB-19 CNS),TGI (SR leukemia),TGI (T-47D breast),TGI (MALME-3M melanoma),GI50 (SNB-19 CNS)
O=C(NO)c1ccc(OCc2cccc(Cl)c2)cc1,20 µM,> 63.8 µM,30.2 µM,20.8 µM,51.4 µM,25.6 µM,29.9 µM,36 µM,26 µM,> 29.8 µM,> 44.1 µM,38.2 µM,70.4 µM,65.1 µM,> 100 µM,> 100 µM,> 28.5 µM,> 61.5 µM,–,–
O=C1C=CC(=O)c2c1cc([N+](=O)[O-])c1ccoc21,30 µM,40.9 µM,41.1 µM,8.72 µM,5 µM,76.7 µM,31.9 µM,> 62.7 µM,35.2 µM,> 70.8 µM,30.7 µM,> 65.1 µM,35.9 µM,60 µM,31.3 µM,39.6 µM,> 100 µM,> 100 µM,–,–
O=C1Oc2ccccc2C(=O)/C1=C/N1C(=O)/C(=C/c2ccc3c(c2)OCO3)SC1=S,13.2 µM,35.4 µM,> 100 µM,> 64.4 µM,–,35.9 µM,32 µM,34.5 µM,32.4 µM,48.4 µM,30.6 µM,32.6 µM,34.2 µM,36.8 µM,29.8 µM,37.1 µM,31.4 µM,31 µM,44.8 µM,12.6 µM
O=c1[nH]c(=O)n(C2OC(CO)C(O)C2O)c2ncc(-c3ccc(-c4ccccc4)cc3)nc12 (centres undefined),> 20 µM,> 20 µM,> 20 µM,–,> 20 µM,> 20 µM,> 20 µM,> 20 µM,> 20 µM,> 20 µM,> 20 µM,> 20 µM,> 20 µM,–,> 20 µM,> 20 µM,> 20 µM,> 20 µM,> 20 µM,–
CCOC(=O)CC(=O)C(=O)NNC1=NCCN1,–,> 100 µM,> 100 µM,> 100 µM,> 100 µM,> 100 µM,> 100 µM,> 100 µM,> 100 µM,> 100 µM,> 100 µM,> 100 µM,> 100 µM,> 100 µM,> 100 µM,> 100 µM,> 100 µM,> 100 µM,> 100 µM,–
CCOC(=O)/C(C=Nc1c(C)n(C)n(-c2ccccc2)c1=O)=C(/O)c1ccccc1,> 100 µM,> 100 µM,> 100 µM,> 100 µM,> 100 µM,> 100 µM,0.746 µM,> 100 µM,> 100 µM,–,> 100 µM,> 100 µM,> 100 µM,> 100 µM,> 100 µM,> 100 µM,> 100 µM,> 100 µM,> 100 µM,–
CCN1C(=S)n2cccc2C1CC(=O)c1ccc(Cl)cc1 (centres undefined),> 100 µM,> 100 µM,> 100 µM,> 100 µM,> 100 µM,> 100 µM,> 100 µM,–,> 100 µM,> 100 µM,> 100 µM,> 100 µM,> 100 µM,> 100 µM,–,> 100 µM,> 100 µM,> 100 µM,> 100 µM,–
Cc1c(-c2ccccc2)[nH]c2ccc(Cl)cc2c1=O,–,0.205 µM,> 100 µM,> 100 µM,52 µM,> 100 µM,28.1 µM,> 100 µM,> 100 µM,> 100 µM,> 100 µM,> 100 µM,87 µM,> 100 µM,56.3 µM,> 100 µM,> 100 µM,> 100 µM,48.7 µM,–
COc1ccc(N=Nc2c(C)c(C#N)c(=S)n(C3OC(COC(C)=O)C(OC(C)=O)C(OC(C)=O)C3OC(C)=O)c2C)cc1 (centres undefined),–,> 100 µM,–,> 100 µM,63.5 µM,> 100 µM,> 100 µM,–,> 100 µM,> 100 µM,> 100 µM,> 100 µM,–,> 100 µM,> 100 µM,> 100 µM,> 100 µM,> 100 µM,> 100 µM,–
CCOC(=O)CCC(NC(=O)OCc1ccccc1)C(=O)NC(CCC(=O)OCC)C(=O)NC(Cc1ccc([N+](=O)[O-])cc1)C(=O)NC(CCC(=O)OCC)C(=O)NC(CCC(=O)OCC)C(=O)OCC (centres undefined) (Cbz-E(OEt)E(OEt)[Phe(4-NO2)]E(OEt)E(OEt)-OEt; configuration not given here),–,> 100 µM,> 100 µM,–,–,> 100 µM,> 100 µM,–,> 100 µM,> 100 µM,> 100 µM,–,> 100 µM,> 100 µM,> 100 µM,> 100 µM,> 100 µM,> 100 µM,> 100 µM,–
CCCCCN1CCN(c2ncccn2)CC1,> 100 µM,> 100 µM,> 100 µM,> 100 µM,> 100 µM,> 100 µM,> 100 µM,–,–,> 100 µM,> 100 µM,> 100 µM,> 100 µM,> 100 µM,> 100 µM,> 100 µM,> 100 µM,> 100 µM,> 100 µM,–
COc1ccc2oc(=Nc3ccccc3)c(C(N)=O)cc2c1,–,> 100 µM,> 100 µM,> 100 µM,> 100 µM,> 100 µM,> 100 µM,> 100 µM,> 100 µM,> 100 µM,> 100 µM,> 100 µM,> 100 µM,> 100 µM,> 100 µM,> 45.1 µM,> 100 µM,> 100 µM,> 100 µM,–
C=C(C)CNC(=S)N(N)c1ccc(OC)cc1,–,> 100 µM,> 100 µM,> 100 µM,> 100 µM,> 100 µM,> 100 µM,> 100 µM,> 100 µM,> 100 µM,> 100 µM,> 100 µM,–,> 100 µM,> 100 µM,> 100 µM,> 100 µM,> 100 µM,> 100 µM,–
